Test results from patent publication US9079919B2 (HOFFMANN-LA ROCHE INC., priority 2011, dated 2015).
Structures can show the parent of a compound that is named as a salt.

Molecular target: T1, BACE1 (Homo sapiens, UniProt P56817)
T1 construct: Human HEK293 cells which are stably transfected with a vector expressing a cDNA of the human APP wt gene (APP695); endogenous in cells; host or cells: HEK293 cells stably transfected with human APP695 (wt)
Experiment: Cellular Aβ-lowering assay b) (Abeta 40 AlphaLISA Assay)
Assay type: cell-based
Conditions: cellular assay b): HEK293 APP cells, Aβ40 in supernatant by AlphaLISA after 18-20 hrs; read-out: BACE1 cell act. Aβ40 IC50
Protocol: b) Alternatively, the Abeta 40 AlphaLISA Assay can be used. The HEK293 APP cells were seeded in 96 well Microtiter plates in cell culture medium (Iscove's, plus 10% (v/v) fetal bovine serum, penicillin/streptomycin) to about 80% confluency and the compounds were added at a 3× concentration in 1/3 volume of culture medium (final DMSO concentration was kept at 1% v/v). After 18-20 hrs incubation at 37° C. and 5% CO2 in a humidified incubator, the culture supernatants were harvested for the determination of Aβ 40 concentrations using Perkin-Elmer Human Amyloid beta 1-40 (high specificity) Kit (Cat#AL275C).
In a Perkin-Elmer White Optiplate-384 (Cat#6007290), 2 ul culture supernatants were combined with 2 μl of a 10× AlphaLISA Anti-hAβ Acceptor beads+Biotinylated Antibody Anti-Aβ 1-40 Mix (50 μg/mL/5 nM). After 1 hour room temperature incubation, 16 μl of a 1.25× preparation of Streptavidin (SA) Donor beads (25 μg/mL) were added and incubated for 30 minutes in the Dark. Light Emission at 615 nm was then recorded using EnVision-Alpha Reader. Levels of Aβ 40 in the culture supernatants were calculated as percentage of maximum signal (cells treated with 1% DMSO without inhibitor). The IC50 values were calculated using the Excel XLfit software.

T1 sequence (P56817 46-501): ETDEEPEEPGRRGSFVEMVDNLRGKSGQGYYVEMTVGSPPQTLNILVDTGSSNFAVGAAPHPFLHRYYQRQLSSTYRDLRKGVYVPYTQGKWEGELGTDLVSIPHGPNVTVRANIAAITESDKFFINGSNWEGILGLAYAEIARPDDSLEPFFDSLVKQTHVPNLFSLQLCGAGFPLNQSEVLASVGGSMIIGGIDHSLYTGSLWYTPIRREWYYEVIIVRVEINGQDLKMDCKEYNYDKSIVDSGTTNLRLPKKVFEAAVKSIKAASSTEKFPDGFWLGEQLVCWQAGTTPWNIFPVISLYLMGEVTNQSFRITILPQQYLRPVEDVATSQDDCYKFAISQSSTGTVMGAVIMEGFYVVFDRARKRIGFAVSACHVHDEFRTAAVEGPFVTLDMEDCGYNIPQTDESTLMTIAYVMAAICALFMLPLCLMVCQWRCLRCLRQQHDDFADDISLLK

Row | IC50 [µM] | SMILES
1 | 5.17 | N#Cc1ccc(C(=O)Nc2ccc3c(c2)[C@@]2(C[C@@]4(CCCOC4)O3)N=C(N)OCC2(F)F)nc1 [Example 44, N-[(2′R,4R)-2-Amino-5,5-difluoro-5,5″,6,6″-tetrahydro-4″H-dispiro[1,3-oxazine-4,4′-chromene-2′,3″-pyran]-6′-yl]-5-cyanopyridine-2-carboxamide]
2 | 6.58 | N#Cc1cccc(-c2ccc3c(c2)[C@@]2(C[C@@]4(CCCOC4)O3)N=C(N)OCC2(F)F)c1 [Example 30, 3-[(2′R,4R)-2-Amino-5,5-difluoro-5,5″,6,6″-tetrahydro-4″H-dispiro[1,3-oxazine-4,4′-chromene-2′,3″-pyran]-6′-yl]benzonitrile formate]
3 | 4.43 | NC1=N[C@@]2(C[C@@]3(CCCOC3)Oc3ccc(-c4cncc(Cl)c4)cc32)C(F)(F)CO1 [Example 29, (2′R,4R)-6′-(5-Chloropyridin-3-yl)-5,5-difluoro-5,5″,6,6″-tetrahydro-4″H-dispiro[1,3-oxazine-4,4′-chromene-2′,3″-pyran]-2-amine formate]
